Laboratory results from patent US20260226006A1, “INDOLE COMPOUND, PREPARATION METHOD THEREFOR AND USE THEREOF” (SUZHOU MERNA THERAPEUTICS CO. LTD, priority 2023, published 2026).

Key:
HaCat cells = experiment: m6A methylation level of drug-treated HaCat keratinocytes by nanopore sequencing (Example 14); type: cell-based, human; details: 50 nM drug, 24 hours
Method: 1*10^8 HaCat cells were seeded in culture dishes, into which 50 nM drugs (including sorafenib, capecitabine, docetaxel, and osimertinib) were added, respectively. The cells were cultured in an incubator containing 5% CO2 at 37° C. for 24 hours and washed with PBS after culture media were removed. Centrifugation was performed, the supernatant was discarded, and then, 400 μL of an RLT cell lysis buffer (QIAGEN, Cat. #79216) was added. A portion of samples were selected, into which 400 μL of 70% ethanol was added. The mixture was evenly stirred and then transferred to an RNeasy mini column, and RNA was extracted using an RNeasy mini kit (QIAGEN, Cat. #74104). 2 μL of an RNA sample was selected and dissolved in 98 μL of a 10 mM Tris-HCl buffer solution, and the absorbance at 260 nm was measured using a Nanodrop (Thermo Fisher Scientific) to determine the RNA concentration.
40 μg of an RNA sample was selected for enrichment of mRNA (PolyA+RNA) using an NEBNext Poly(A) mRNA magnetic isolation module (NEB, Cat. #E7490), and then, a 3′ end of the above enriched mRNA (PolyA+RNA) molecule was ligated with reverse transcription adapter RTA using a direct RNA sequencing kit (Oxford Nanopore Technologies, Cat. #SQK-RNA002). A reverse transcription reaction was performed with the mRNA (PolyA+RNA) molecule as a template to synthesize a complementary strand, a terminal end of the reverse transcription adapter RTA was ligated with a sequencing adapter (RNA adapter) to form a final sequencing library, and quantitative detection was performed using a Qubit™ dsDNA HS assay kit (Invitrogen, Cat. #LOT2133187).
After quality inspection of the library, the prepared sequencing library was loaded onto a PromethION flow cell chip (Oxford Nanopore Technologies, Cat. #FLO-MIN106D), and placed in a PromethION sequencer (Oxford Nanopore Technologies) for sequencing by selecting a matched sequencing mode. Basecalling was performed on sequencing data through guppy, and m6A methylation analysis was performed on original fast5 data.

[1] = test system: skin of hind limb toes of mice; experiment: Chemotherapeutic drug-induced mouse models with hand-foot syndrome (Example 23); type: in vivo, ICR mice; details: compound 2b 3% ointment topical or nicotinamide 100 mg/kg oral; for expression level of cytokine IL-8 in skin tissues of hind limb toes: capecitabine model; for thickening of the epidermal layer and the stratum corneum in the skin tissues (pathological staining) / swelling of the toes caused by the modeling drugs: capecitabine or docetaxel model; for swelling of the toes caused by the modeling drugs: once daily 16 days; for expression level of cytokine IL-6 in skin tissues of hind limb toes: docetaxel model
Description: After adaptive feeding for 7 days, SPF-grade ICR mice (male, 5-6 weeks old, with a body weight of approximately 35 g) were randomly divided into groups, including a blank control group (6 mice), a capecitabine modeling group (6 mice), a docetaxel modeling group (6 mice), a capecitabine+compound 2b group (6 mice), a docetaxel+compound 2b group (6 mice), a capecitabine+nicotinamide group (6 mice), and a docetaxel+nicotinamide group (6 mice). The groups were respectively administered corresponding modeling drugs by oral gavage (capecitabine at 200 mg/kg and docetaxel at 25 mg/kg) once daily, and the blank control group was administered an equivalent volume of normal saline. After administration with the chemotherapeutic drugs for 2 weeks, the compound ointments (at a compound content of 3%) used in Example 22 were respectively applied topically in the groups, or nicotinamide was orally administered (100 mg/kg) once daily continuously for 16 days.
Measurement of the degree of swelling of toes: The degree of swelling of hind limb toes of the mice was measured using a toe swelling tester (KW-7C, Nanjing Calvin Biotechnology Co., Ltd.) before administration with the modeling drugs, after administration with the modeling drugs for 2 weeks, and before sacrifice, respectively. Before measurement, ankle joints of hind paws of the mice were marked at same positions before administration, after administration for 2 weeks, and before sacrifice. During measurement, water was properly located at the same level as the marked positions, and numerical values were recorded after becoming stable.
Pathological staining of skin tissues: Skin tissue samples were selected from hind limb toes of the mice and placed in 4% paraformaldehyde for fixation at room temperature for 4 hours. Then, the tissues were taken out and rinsed with running water for several hours. The samples were subjected to dehydration treatment with 70%, 80%, and 90% ethanol solutions, followed by treatment with a mixed solution of equal amounts of absolute alcohol and xylene for 15 minutes, and then permeabilized twice with a xylene solution for 15 minutes each time until the samples became transparent. The samples were placed in a mixture of half xylene and half paraffin for soaking for 15 minutes, and then, paraffin I and paraffin II were added for wax penetration for one hour, respectively. After embedding with paraffin, the samples were sectioned, baked, dewaxed, and hydrated. Then, the hydrated sections were placed in a hematoxylin solution (ZSGB-BIO, article No. 23041001) for staining for 3 minutes, and a differentiation solution of hydrochloric acid in ethanol was added for differentiation for 15 seconds. After rinsing with water, a Scott bluing solution (Servicebio, article No. 20230801) was added for bluing for 15 seconds. After rinsing with running water, the sections were stained with an eosin solution (Solarbio, article No. 33535) for 3 minutes, rinsed with running water, dehydrated, permeabilized, sealed, and inspected under a microscope.
Immunohistochemical staining: After baking, dewaxing, and hydration, paraffin sections of skin tissues of hind limb toes of the mice were subjected to antigen retrieval using a 0.2 M citric acid buffer solution (containing 1.534 g of citric acid, 3.1 g of sodium citrate, and 100 mL of distilled water, pH 4.7). Endogenous […] was removed using 3% hydrogen peroxide (Shandong Annjet High-Tech Disinfection Technology Co., Ltd., article No. 20290902), and the sections were incubated at room temperature for 10 minutes and then fully rinsed with a PBS buffer solution (containing 8 g of NaCl, 0.2 g of KCl, 1.44 g of Na2HPO4, and 1 M HCl, pH 7.4). The sections were permeabilized with 0.5% Triron-X-100 (AmyJet Scientific, article No. A-CSH436-100 mL), respectively permeabilized with mouse anti-IL-1β and rabbit IL-8 for 10 minutes, and not permeabilized with rabbit anti-IL-6. […]

With `CNC(=O)c1cc(Oc2ccc(NC(=O)Nc3ccc(Cl)c(C(F)(F)F)c3)cc2)ccn1` [Sorafenib, sorafenib, reference compound] the “m6A methylation level of HaCat cells, increase compared with blank control group” value (HaCat cells) was 5.05 times.

`C=CC(=O)Nc1cc(Nc2nccc(-c3cn(C)c4ccccc34)n2)c(OC)cc1N(C)CCN(C)C` [Osimertinib, osimertinib, reference compound] was tested, and the “m6A methylation level of HaCat cells, increase compared with blank control group” value (HaCat cells) was 5.13 times.

With `NC(=O)c1cccnc1` [Nicotinamide, nicotinamide] the “expression level of cytokine IL-8 in skin tissues of hind limb toes” value [1] was “does not have a significant impact”, the “thickening of the epidermal layer and the stratum corneum in the skin tissues (pathological staining)” value [1] was “mildly alleviates” and the “swelling of the toes caused by the modeling drugs” value [1] was “not observed that oral administration of the nicotinamide at 100 mg/kg significantly alleviates the swelling”. For the same compound, the “expression level of cytokine IL-6 in skin tissues of hind limb toes” value [1] was “does not have a significant impact”.

For `NC(=O)[C@H]1CCCc2c1[nH]c1ccc(Cl)cc21` [Compound 2b, (S)-6-chloro-2,3,4,9-tetrahydro-1H-carbazole-1-carboxamide], the “expression level of cytokine IL-8 in skin tissues of hind limb toes” value [1] was “significantly decrease”, the “thickening of the epidermal layer and the stratum corneum in the skin tissues (pathological staining)” value [1] was “effectively alleviate” and the “swelling of the toes caused by the modeling drugs” value [1] was “significantly alleviate”. The “expression level of cytokine IL-6 in skin tissues of hind limb toes” value [1] was “significantly decrease”.
